Values quoted from earlier work as cited in patent publication US20180346745A1, “WATER-BASED INK COMPOSITION FOR INK JET RECORDING AND COLORING MATERIAL LIQUID” (Seiko Epson Corporation, priority 2017, published 2018).

Conditions: value defined by OECD Test Guideline 107

SMILES	log P (water-octanol partition coefficient)
CCCCOCCOCCO [butyl diglycol]	0.56
CCCOCC(C)O (centres unmarked) [propylene glycol monopropyl ether]	0.61

Further lines, results first:

log P (water-octanol partition coefficient)	SMILES
1.32	CCCCCCC(O)CO (centres unmarked) [1,2-octane diol]
1.14	CCCCOCC(C)O (centres unmarked) [propylene glycol monobutyl ether]
0.83	CCCCCOCC(O)CO (centres unmarked) [3-pentyloxy-1,2-propanediol]
